# Results taken from PubChem BioAssay AID1288 (Columbia University Molecular Screening Center, 2008).
# Activity calls are given as the source filed them. How the calls were made is not given here.
# Assay: E-selectin induction blockers, endothelial cells – imaging, retest plus dose response, cell count, confirmation (AID 1288);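 further: 0% = stimulated vehicle wells and 100% = unstimulated vehicle wells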
# Settings: human endothelial cells, TNFa-induced E-selectin, imaging; at 2 µM; hits give high values
row,Compound,inhibition
1,CCOC(=O)N1CCN(C(=S)NC(=O)c2cncc(Br)c2)CC1,19.8% (inactive)
2,S=C(NCc1cccs1)Nc1cccc(Cl)c1Cl,8.76% (inactive)
3,COc1cccc(-n2c(SC3CCOC3=O)nc3ccccc3c2=O)c1 (stereo not drawn),27.9% (inactive)
4,CC1CC1c1ccc(/C=C(\C#N)C(=O)Nc2ccc(Cl)cc2)o1 (stereo not drawn),7.94% (inactive)
5,Cc1ccc(S(=O)(=O)N2CCN(C(=O)C3COc4ccccc4O3)CC2)cc1C (stereo not drawn),-0.52% (inactive)
6,C=CCN1CCN(C(c2cc(OC)ccc2OC)c2nnnn2CC2CCCO2)CC1 (stereo not drawn),31.2% (inactive)
7,CCOC(=O)N1CCC(N(CCOC)C(=O)Nc2ccc(Cl)cc2)CC1,2.12% (inactive)
8,COc1ccc(C(CC(=O)NCc2ccccc2)Sc2n[nH]c(-c3ccccc3)n2)cc1 (stereo not drawn),29.1% (inactive)
9,CC1(C)CC(=O)C2=C(C1)NCN(Cc1ccc3c(c1)OCO3)C2,3.18% (inactive)
10,CCn1c(SCc2nc(CC(=O)Nc3ccccc3OC)no2)nnc1-c1cccs1,7.75% (inactive)
11,N#Cc1cc2sc3nnc(-c4ccncc4)n3c2cc1C#N,24.9% (inactive)
12,Cc1ccc(N2C(=O)C3C4C=CC(CNC(=S)Nc5ccc(F)cc5)(O4)C3C2=O)cc1 (stereo not drawn),5.92% (inactive)
13,Cc1oc(-c2cccs2)nc1CSCC(=O)N1CCC2(CC1)OCCO2,2.86% (inactive)
14,CSc1nc(=O)n2cc(C)ccc2n1,1.88% (inactive)
15,Cn1c(O)c(C(=N)COc2cccc(Cl)c2)c(=O)n(C)c1=O,18.8% (inactive)
16,COc1ccc(-n2nc([N+](=O)[O-])c(=NCCc3ccc(Cl)cc3)n2O)cc1,6.09% (inactive)
17,O=c1cc(-c2ccccc2)c2ccccc2[nH]1,35% (inactive)
18,CCCCNc1nc(CC)c2c(c1C#N)CCCC2,4.98% (inactive)
19,CCS(=O)(=O)c1ccc2oc(Nc3ccc(C(C)C)cc3)nc2c1,4.39% (inactive)
20,COc1ccccc1-c1nc(-c2ccc(C)nc2OC)no1,0.65% (inactive)
21,NC(=S)NNc1cccc(Cl)c1,6.61% (inactive)
22,CC1=NN(C(C)C)C(=O)C1,25.1% (inactive)
23,CN1C(=O)S/C(=C\c2ccccc2OCc2ccc(C(=O)O)cc2)C1=O,15.9% (inactive)
24,O=C1c2ccccc2C(Nc2ccc(S(=O)(=O)N3CCCCCC3)cc2)N1Cc1ccco1 (stereo not drawn),1.55% (inactive)
25,O=C(CCc1ccccc1)NCCC1=CCCCC1,6.52% (inactive)

row,Compound,inhibition
1,CCCC(CCC)C(=O)NNc1cc(=O)c2c(=O)n(C)c(=O)n(C)c2[nH]1,5.15% (inactive)
2,O=C1NCCCc2c1oc1cc(Br)c(O)c(Br)c21,15.8% (inactive)
3,CCCOc1ccc(NC(=O)C(=O)NCCCn2ccnc2)cc1,42.5% (inactive)
4,CCn1cc(C(=O)O)c(=O)c2cc(F)c(N3CCN(C(=S)NC(=O)c4ccc(Br)cc4)CC3)cc21,7.45% (inactive)
5,CCOC(=O)C1C(=O)CC(C)(O)C(C(=O)OCC)C1c1ccccc1 (stereo not drawn),-2.22% (inactive)
6,O=C(NCCN1C(=O)CSC1=O)c1ccccc1,1.16% (inactive)
7,O=C1CC(Sc2nnc(-c3ccccc3O)o2)C(=O)N1c1ccccc1 (stereo not drawn),9.02% (inactive)
8,CC(C)(C)c1ccc(OCCCNCc2ccccc2)cc1,-6.22% (inactive)
9,O=c1c2c(n3nnnc3n1-c1ccccc1)-c1ccccc1CC21CCCC1,-3.55% (inactive)
10,CCS(=O)(=O)Nc1ccc(-c2cc(-c3ccccc3)c3cc(C)ccc3n2)cc1,0.49% (inactive)
11,CCn1c(SCC(=O)Nc2ccccc2OC)nnc1-c1cnccn1,6.59% (inactive)
12,Cc1ccc(/C=C/C(=O)C2C(=O)c3ccccc3C2=O)cc1,23.7% (inactive)
13,NC(=O)NOCc1ccccc1,-1.04% (inactive)
14,Cc1ccc2oc(=O)n(CCCOc3ccccc3)c2c1,26.2% (inactive)
15,Cc1ccc(NC(=O)Nc2ccc3c(c2)N(C)C(=O)CS3)nc1,3.21% (inactive)
16,COC(=O)CSc1nc(N)nc(C)c1Br,3.71% (inactive)
17,COC(=O)c1cc(Br)c(=O)n(Cc2ccncc2)c1,6.86% (inactive)
18,O=C(O)CCC(=O)Nc1ccc(Br)c(Cl)c1,-3.06% (inactive)
19,COc1ccc2c(c1OC)C(=O)OC2c1c(O)nc(SC)n(-c2ccccc2)c1=O (stereo not drawn),4.68% (inactive)
20,CN(C)c1ccc(NC(=S)NC(=O)/C=C/c2ccc(Cl)cc2)cc1,2.61% (inactive)
21,Cc1cc(C)cc(C(=O)Oc2coc(CSc3nnc(NC(=O)C4CC4)s3)cc2=O)c1,6.25% (inactive)
22,CCOC(=O)c1ccc(NC(=S)NCC(O)c2ccccc2)cc1 (stereo not drawn),4.17% (inactive)
23,O=C(Nc1ccc2nsnc2c1)c1ccc2c(c1)OCO2,7.37% (inactive)
24,Cc1ccc(-n2c(SCC(=O)Nc3nccs3)nc3c(c2=O)SCC3)cc1,5.08% (inactive)
25,Cc1cc(C)cc(NC(=S)NC2CC3CCCC(C2)N3C2CC2)c1 (stereo not drawn),0.55% (inactive)

row,Compound,inhibition
1,COCCN1C(=O)N(c2cccc(C)c2)C(=O)C1CC(=O)Nc1ccc(F)cc1 (stereo not drawn),12% (inactive)
2,Nn1c(CN2CCCCC2)nc2ccccc2c1=O,12.2% (inactive)
3,COc1cccc(S(=O)(=O)Nc2ccc(C(=O)N3CCN(C(=O)c4ccco4)CC3)cc2)c1,31.3% (inactive)
4,O=C(c1cnccn1)N1CCN(c2ccccc2)CC1,30.4% (inactive)
5,CCOc1ccc(NC(=O)COC(=O)C23CC4CC(CC(C4)C2)C3)c([N+](=O)[O-])c1,1.77% (inactive)
6,O=c1cc(CO)oc(C(Nc2ccccn2)c2ccccc2F)c1O (stereo not drawn),13.7% (inactive)
7,O=c1c2cccnc2[nH]c(=S)n1CCCN1CCN(c2ccc(F)cc2)CC1,1.58% (inactive)
8,COc1cc(C2C(C#N)=C(N)Oc3c2oc(CO)cc3=O)cc(OC)c1OC (stereo not drawn),10.9% (inactive)
9,CC(=O)Nc1ccc(OCCF)cc1,0.31% (inactive)
10,C=CCn1c(SCC(=O)NCc2ccccc2)nnc1-c1ccccc1O,-0.67% (inactive)
11,CC(C)(C)OC(=O)NCC(=O)N1CCC(C(=O)O)CC1,-3.45% (inactive)
12,Cc1cc(NC(=O)CSc2n[nH]c(N)n2)no1,14.1% (inactive)
13,COc1ccc(Cc2nnc(SCC(=O)NC3CCCC3)o2)cc1,40.2% (inactive)
14,Clc1ccc(-c2nnc(-c3ccco3)o2)cc1,6.81% (inactive)
15,CC(C)[C@H](NC(=O)CCn1nnc2ccccc2c1=O)C(=O)O,4.34% (inactive)
16,N/C(Cc1ccc([N+](=O)[O-])cc1)=N\OC(=O)COc1ccc2ccccc2c1,12.6% (inactive)
17,CCN(CC)S(=O)(=O)c1ccc(NC(=O)CSc2nnc(-c3ccc(F)cc3)o2)cc1,1.25% (inactive)
18,O=C(Cn1nnc(-c2ccc(Cl)cc2)n1)NC1CCN(Cc2ccccc2)CC1,11.8% (inactive)
19,Cn1cccc1/C=C1\C(=O)NC(=O)N(CCC2=CCCCC2)C1=O,6.01% (inactive)
20,COc1ccc(CCNC(=O)C(=O)NCc2ccc(C)cc2)cc1OC,8.92% (inactive)
21,COc1ccc(-n2c(C)c3c(OC)cccc(=O)c3c2C)cc1,-2.64% (inactive)
22,O=C(Nc1nc(-c2ccccc2)c(-c2ccccc2)s1)c1ccc(S(=O)(=O)N(CCCl)CCCl)cc1,-7.24% (inactive)
23,O=S1(=O)CCN(C(CCO)c2cccc(C(F)(F)F)c2)CC1 (stereo not drawn),4.23% (inactive)
